The values that follow come from ChEMBL document CHEMBL2440076, “New triarylpyrazoles as broad-spectrum anticancer agents: design, synthesis, and biological evaluation” (Eur J Med Chem, 2013).

The structures appear in SMILES notation.

Common to all, as to assay type: functional
In assay [1] the test system is RPMI-8226. The experiment in a line: Growth inhibition of human RPMI8226 cells assessed as cell growth at 10 uM after 48 hrs by sulforhodamine B assay. As to conditions: RPMI-8226, 48 h, read-out: Activity. On the technique in general: The SRB assay estimates cell density from bound dye.
In assay [2] the test system is SN12C. The experiment in a line: Growth inhibition of human SN12C cells assessed as cell growth at 10 uM after 48 hrs by sulforhodamine B assay. The following applies: read-out: Activity.
In assay [3] the test system is SK-MEL-28. The experiment in a line: Growth inhibition of human SK-MEL-28 cells assessed as cell growth at 10 uM after 48 hrs by sulforhodamine B assay. As to conditions: SK-MEL-28, 48 h, read-out: Activity.
The subject of assay [4] is CAKI-1. The experiment in a line: Growth inhibition of human CAKI-1 cells assessed as cell growth at 10 uM after 48 hrs by sulforhodamine B assay. As to conditions: CAKI-1, 48 h, read-out: Activity.
The subject of assay [5] is SK-MEL-5. The experiment in a line: Growth inhibition of human SK-MEL-5 cells assessed as cell growth at 10 uM after 48 hrs by sulforhodamine B assay. The following applies: SK-MEL-5, 48 h, read-out: Activity.
For assay [6], the system named is TK-10. The experiment in a line: Growth inhibition of human TK10 cells assessed as cell growth at 10 uM after 48 hrs by sulforhodamine B assay. The following applies: TK-10, 48 h, read-out: Activity.
The subject of assay [7] is A549. The experiment in a line: Growth inhibition of human A549/ATCC cells assessed as cell growth at 10 uM after 48 hrs by sulforhodamine B assay. The following applies: A549, 48 h, read-out: Activity.
For assay [8], the system named is KM12. The experiment in a line: Growth inhibition of human KM12 cells assessed as cell growth at 10 uM after 48 hrs by sulforhodamine B assay. As to conditions: KM12, 48 h, read-out: Activity.
Assay [9] concerns HOP-92. The experiment in a line: Growth inhibition of human HOP92 cells assessed as cell growth at 10 uM after 48 hrs by sulforhodamine B assay. As to conditions: HOP-92, 48 h, read-out: Activity.
In assay [10] the test system is Malme-3M. The experiment in a line: Growth inhibition of human MALME-3M cells assessed as cell growth at 10 uM after 48 hrs by sulforhodamine B assay. The following applies: read-out: Activity.
Assay [11] has as its system BT-549. The experiment in a line: Growth inhibition of human BT549 cells assessed as cell growth at 10 uM after 48 hrs by sulforhodamine B assay. The following applies: BT-549, 48 h, read-out: Activity.
Assay [12] deals with HT-29. The experiment in a line: Growth inhibition of human HT-29 cells assessed as cell growth at 10 uM after 48 hrs by sulforhodamine B assay. The following applies: HT-29, 48 h, read-out: Activity.
Assay [13] deals with SW-620. The experiment in a line: Growth inhibition of human SW620 cells assessed as cell growth at 10 uM after 48 hrs by sulforhodamine B assay. As to conditions: SW-620, 48 h, read-out: Activity.
For assay [14], the system named is U-251. The experiment in a line: Growth inhibition of human U251 cells assessed as cell growth at 10 uM after 48 hrs by sulforhodamine B assay. The following applies: U-251, 48 h, read-out: Activity.
The test system of assay [15] is NCI-H23. The experiment in a line: Growth inhibition of human NCI-H23 cells assessed as cell growth at 10 uM after 48 hrs by sulforhodamine B assay. The following applies: NCI-H23, 48 h, read-out: Activity.
In assay [16] the test system is PC-3. The experiment in a line: Growth inhibition of human PC3 cells assessed as cell growth at 10 uM after 48 hrs by sulforhodamine B assay. As to conditions: PC-3, 48 h, read-out: Activity.
The test system of assay [17] is HOP-62. The experiment in a line: Growth inhibition of human HOP62 cells assessed as cell growth at 10 uM after 48 hrs by sulforhodamine B assay. The following applies: HOP-62, 48 h, read-out: Activity.

`COc1cc(-c2nn(-c3cccc(NC(=O)c4ccc(Br)c(C)c4)c3)cc2-c2ccncc2)ccc1Cl`: the growth at 10 µM in assay [1] is 64.7%; in [2] it was 81%; in assay [3], 80.2%; in [4] it was 86.8%; in [5], 71%; in [6] it was 91.3%. In addition, the growth at 10 µM stood at 78.3% in assay [7]; 82.7% in [8]; 51.3% in assay [9]; 52.7% in [10]; 91.4% in assay [11]; 66.6% in assay [12]. Moreover, the growth at 10 µM is 82.7% in assay [13]; 73.7% in assay [14]; 86.9% in assay [15]; 59.4% in assay [16]; 91.8% in [17].
In the case of `Cc1cc(C(=O)Nc2cccc(-n3cc(-c4ccncc4)c(-c4ccc(Cl)c(O)c4)n3)c2)ccc1Br`, the growth at 10 µM in assay [1] worked out at 92.1%; in assay [2] it was 101%; in [3], 93.5%; in assay [4] it was 93.9%; in assay [5] it was 94.4%; in assay [6], 113%. In addition, the growth at 10 µM in assay [7] turned out to be 95.3%; in assay [8], 97.3%; in assay [9], 97.8%; in assay [10], 82.6%; in assay [11], 103%; in [12], 107%. The growth at 10 µM in [13] was 125%; in [14], 92.1%; in assay [15], 97.9%; in assay [16], 86.8%; in assay [17], 98%.
Consider `O=C(Nc1cccc(-n2cc(-c3ccncc3)c(-c3ccc(Cl)c(O)c3)n2)c1)c1ccc(Cl)c(C(F)(F)F)c1`, for which the growth at 10 µM in assay [1] was found to be 98.1%; in [2] it was 98.6%; in assay [3] it was 94.1%; in [4], 100%; in assay [5], 95.2%; in assay [6] it was 119%. Moreover, the growth at 10 µM in [7] is 88.8%; in assay [8] it was 88.4%; in assay [10] it was 79.5%; in assay [11], 94.5%; in assay [12], 105%; in assay [13] it was 112%. The growth at 10 µM turned out to be 95.9% in assay [14], 105% in [15], 85.7% in assay [16] and 99.4% in assay [17].
`COc1cc(-c2nn(-c3cccc(NC(=O)Nc4ccccc4)c3)cc2-c2ccncc2)ccc1Cl`: the growth at 10 µM came out at 68% in assay [1]; 86.2% in [2]; 86.3% in assay [3]; 96.1% in assay [4]; 79.9% in assay [5]; 116% in [6]. Further, the growth at 10 µM came to 79.3% in assay [7]; 73.7% in assay [8]; 57.7% in [10]; 89.9% in assay [11]; 84% in assay [12]; 82.8% in assay [13]. The growth at 10 µM came to 85% in [14], 100% in assay [15], 52.5% in assay [16] and 87.2% in assay [17].
As to `O=C(Nc1cccc(-n2cc(-c3ccncc3)c(-c3ccc(Cl)c(O)c3)n2)c1)c1ccccc1`, the growth at 10 µM in [1] turned out to be 60.5%; in assay [2], 79.3%; in assay [3] it was 48.1%; in assay [4], 90.3%; in [5], 59.4%; in assay [6] it was 109%. Further, the growth at 10 µM in assay [7] was determined as 52.6%; in assay [8], 70.1%; in assay [9], 3.59%; in assay [10], 53.1%; in [11], 83.4%; in assay [12], 53.5%. In addition, the growth at 10 µM is 76.9% in assay [13]; 75.4% in assay [14]; 90.8% in assay [15]; 50.3% in assay [16]; 46.7% in assay [17].
